Converted amounts (≈) assume the structure as drawn. “And” between values parts separate entries of the source, which are not always exact repeats. Equal values may be shown once. Read-outs that look alike come from different tables or passages of the source.
How the values were obtained:
E. coli AG100A [1] = test: Real-time ethidium bromide accumulation assay (efflux pump inhibition); conditions: minute 60
E. coli AG100 [2] = test: as above; conditions: minute 60
E. coli SA/2 = system: E. coli SA/2; design: method as in PMID 34203998; conditions: cited from earlier work
Staphylococcus aureus = conditions: cited from earlier work
S. aureus 272123 = test: Real-time ethidium bromide accumulation assay (efflux pump inhibition); conditions: minute 60
MRSA 272123 = test: Biofilm formation, crystal violet method; type: cell-based, Staphylococcus aureus
Experimental: (§1) The antibiofilm effect of the tested compounds was evaluated using the crystal violet method on E. coli AG100, E. coli AG100A, and MRSA 272123. […] CCCP was used as a positive control.
(§2) The biofilm-forming ability of the S. aureus strains was studied in 96-well microtiter plates using TSB broth in the presence of compounds. The biofilm-forming ability of the E. coli strains was studied in 96-well microtiter plates using LB broth in the presence of the compounds. […] The final volume was 200 μL in each well. The positive control was CCCP at 50 µM. Plates were incubated for 48 h at 30 °C with gentle shaking at 100 rpm. After the incubation period, the medium was removed and the plate was washed with water to remove unattached cells. A total of 200 μL CV (0.1% [v/v]) was added to each wells and incubated for 15 min at room temperature. CV was discarded from the wells and the plate was washed with water again. Then, 200 μL of 70% ethanol was added to each well and the biofilm formation was determined by measuring the OD at 600 nm using a Multiscan EX ELISA plate reader (Thermo Labsystems, Cheshire, WA, USA). The antibiofilm effect of the compounds was expressed as the percentage (%) decrease in biofilm formation.

E. coli AG100 [3] = test: Biofilm formation, crystal violet method; type: cell-based, Escherichia coli; conditions: 50 μM
Experimental: as §1, §2

E. coli AG100A [4] = test: MIC determination, broth microdilution; type: cell-based; conditions: Escherichia coli
Excerpt: (§3) Both reference and resistant strains used in this work were employed by our group for the screening of different families of compounds, such as xanthones and thioxanthones.

E. coli AG100 [5] = test: MIC determination, broth microdilution; type: cell-based; conditions: Escherichia coli
Excerpt: as §3

S. aureus MRSA 272123 = test: MIC determination, broth microdilution; type: cell-based; conditions: Staphylococcus aureus
Excerpt: as §3

[6] = system: NIH/3T3 mouse fibroblast cell line; test: Cytotoxicity assay (MTT); type: cell-based; conditions: NIH3T3, 24 h
Experimental: The effects of increasing concentrations of compounds on cell growth were tested in 96-well flat-bottomed microtiter plates. The compounds were diluted in a volume of 100 μL of medium. Afterwards, 1 × 10^4 cells in 100 μL of medium were added to each well, with the exception of the medium control. In the case of NIH/3T3 cells, the compounds were added after seeding the cells at 37 °C overnight. The plates were incubated at 37 °C for 24 h; after the incubation period, 20 μL of MTT solution (from a 5 mg/mL stock) was added to each well. After 4 h of incubation at 37 °C, 100 μL of SDS solution (10% in 0.01 M HCl) was added to each well and the plates were incubated at 37 °C overnight. Cell growth was determined by measuring the optical density (OD) at 540 nm (ref. 630 nm) with a Multiscan EX ELISA reader. Inhibition of cell growth was determined as IC50 values, defined as the inhibitory dose that reduced the growth of the cells exposed to the tested compounds by 50%. IC50 values and the SD of triplicate experiments were calculated by using GraphPad Prism software version 5.00 for Windows with a nonlinear regression curve fit (GraphPad Software, San Diego, CA, USA; www.graphpad.com, accessed on 14 July 2022). Doxorubicin (from a 2 mg/mL stock solution, Teva Pharmaceuticals) was used as the positive control.

E. faecalis B3/101 = test: Antibiotic potentiation with vancomycin, broth microdilution; conditions: E. faecalis B3/101; compound at 16 µg/mL
E. faecalis PFi/2 = test: MIC determination, broth microdilution; type: cell-based; conditions: Enterococcus faecalis
Excerpt: as §3

S. aureus 66/1 (MRSA) = test: MIC determination, broth microdilution; type: cell-based; conditions: Staphylococcus aureus
Excerpt: as §3

E. faecalis ATCC 29212 = test: MIC determination, broth microdilution; type: cell-based; conditions: Enterococcus faecalis
Excerpt: as §3

S. aureus ATCC 29213 = test: MIC determination, broth microdilution; type: cell-based; conditions: Staphylococcus aureus
Excerpt: as §3

E. faecalis PSi/107 = test: MIC determination, broth microdilution; type: cell-based; conditions: Enterococcus faecalis
Excerpt: as §3

E. faecalis B3/101 (VRE) = test: MIC determination, broth microdilution; type: cell-based; conditions: Enterococcus faecalis
Excerpt: as §3

[7] = system: E. coli AG100, E. coli AG100A, and MRSA 272123; test: Biofilm formation, crystal violet method (overall statement); type: cell-based
Experimental: as §1, §2

[8] = system: S. aureus, including the MRSA strains; test: MIC, summary over S. aureus strains; conditions: Staphylococcus aureus
Experimental: (§4) The MIC of each compound was determined by the broth microdilution method, in accordance with the recommendations of the CLSI [48]. Two-fold serial dilutions of the compounds were prepared in Mueller–Hinton Broth 2 (MHB2–Sigma-Aldrich, St. Louis, MO, USA). Sterility and growth controls were included in each assay. Quality controls were performed with erythromycin for the Gram-positive bacterial strains and with colistin for the Gram-negative bacterial strains. Purity check and colony counts of the inoculum suspensions were also performed to ensure that the final inoculum density closely approximated 5 × 10^5 CFU/mL. The MIC was determined as the lowest concentration at which no visible growth was observed. […] The reported MIC results arose from at least three independent experiments.

[9] = system: E. faecalis including VRE; test: MIC, summary over E. faecalis strains; conditions: Enterococcus faecalis
Experimental: as §4

[10] = ATCC29213, value in parentheses
[11] = ATCC29212, value in parentheses

Structure (SMILES) | RFI ± SD (E. coli AG100A [1]; compound at 50 μM) | RFI ± SD (E. coli AG100 [2]; compound at 50 μM) | RFI ± SD (S. aureus 272123; compound at 50 μM) | MIC (S. aureus MRSA 272123) | RFI ± SD (E. coli AG100A [1]; compound at 100 μM) | IC50 [6] [µM] | MIC (E. faecalis PFi/2) [µM] | MIC (S. aureus 66/1 (MRSA)) | MIC (E. faecalis ATCC 29212; ATCC29212) [µM] | MIC (S. aureus ATCC 29213; ATCC29213) [µM] | MIC (E. faecalis PSi/107) [µM] | MIC (E. faecalis B3/101 (VRE)) | RFI ± SD (E. coli AG100 [2]; compound at 100 μM) | MIC (S. aureus ATCC 29213; [10]) [µg/mL] | further results
N#CC(C#N)=NNc1cccc(Cl)c1 [CCCP, carbonyl cyanide m-chlorophenyl hydrazone, reference compound] | 1.13 ± 0.02 | 1.56 ± 0.01 |  |  |  |  |  |  |  |  |  |  |  |  | 
CO/N=C(\C(=O)N[C@@H]1C(=O)N2C(C(=O)O)=C(COC(C)=O)CS[C@H]12)c1csc(N)n1 [CTX, cefotaxime] |  |  |  |  |  |  |  |  |  |  |  |  |  |  | MIC (E. coli SA/2): 512 µg/mL (≈ 1120 µM)
CC(C)C[C@@H]1NC(=O)[C@@H](Cc2c[nH]c3ccccc23)n2c1nc1c(Cl)cc(Cl)cc1c2=O [Compound 4] | 0.26 ± 0.07 | 0.01 ± 0.02 | 1.13 ± 0.20 | > 100 µM |  |  |  |  |  |  |  |  |  |  | MIC (Staphylococcus aureus; resistant strain of S. aureus): 8 µg/mL (≈ 17 µM); MIC (Staphylococcus aureus; sensitive strain of S. aureus): 4 µg/mL (≈ 8.52 µM); decrease in biofilm formation (MRSA 272123): 91%; antibiofilm effect (in words) (E. coli AG100 [3]): reduced the amount of biofilm; MIC (E. coli AG100A [4]): > 100 µM; MIC (E. coli AG100 [5]): > 100 µM
CC(C)C[C@@H]1NC(=O)[C@@H](Cc2c[nH]c3ccccc23)n2c1nc1ccc(F)cc1c2=O [Compound 12a, (1S,4R)-4-((1H-indol-3-yl)methyl)-8-fluoro-1-isobutyl-1,2-dihydro-6H-pyrazino[2,1-b]quinazoline-3,6(4H)-dione] |  | −0.17 ± 0.02 | 0.63 ± 0.04 | > 100 µM | 0.59 ± 0.03 | 52.2 ± 0.75 | > 100 | 77 µM and 32 µg/mL | > 100 | > 100 | > 100 | 77 µM and 32 µg/mL | 2.45 ± 0.26 |  | RFI ± SD (S. aureus 272123; compound at 100 μM): 1.03 ± 0.02; MIC of vancomycin in combination with the compound (E. faecalis B3/101): 256 µg/mL; antibiofilm effect (in words) (E. coli AG100 [3]): reduced the amount of biofilm
CC(C)C[C@@H]1NC(=O)[C@@H](Cc2c[nH]c3ccccc23)n2c1nc1cc(F)ccc1c2=O [Compound 12b, (1S,4R)-4-((1H-indol-3-yl)methyl)-9-fluoro-1-isobutyl-1,2-dihydro-6H-pyrazino[2,1-b]quinazoline-3,6(4H)-dione] |  | −0.07 ± 0.06 | 0.96 ± 0.07 | 100 µM and 41.8 µg/mL | 0.77 ± 0.17 | 58 ± 1.58 | > 100 | 77 µM and 32 µg/mL | > 100 | 77 | > 100 | 38 µM and 16 µg/mL | 1.47 ± 0.12 | 32 | 
CC(C)C[C@@H]1NC(=O)[C@H](Cc2c[nH]c3cc(F)ccc23)n2c1nc1c(Cl)cc(Cl)cc1c2=O [Compound 12c] |  | 0.24 ± 0.16 |  | 12.5 µM and 6.1 µg/mL | 4.40 ± 1.78 | 46.1 ± 0.66 | > 100 | 33 µM and 16 µg/mL | 33 to 66 | 33 | > 100 | 33 µM and 16 µg/mL | 3.60 ± 0.01 | 16 | antibiofilm capacity (in words) [7]: did not show any relevant activity; RFI ± SD (S. aureus 272123; compound at 6.25 μM (MIC/2)): 0.49 ± 0.01; MIC (E. faecalis ATCC 29212; [11]): 16 to 32 µg/mL
CC(C)C[C@@H]1NC(=O)[C@H](Cc2c[nH]c3c(Cl)cccc23)n2c1nc1c(Cl)cc(Cl)cc1c2=O [Compound 12d, (1S,4S)-8,10-dichloro-4-((7-chloro-1H-indol-3-yl)methyl)-1-isobutyl-1,2-dihydro-6H-pyrazino[2,1-b]quinazoline-3,6(4H)-dione] |  |  |  | 25 µM and 12.6 µg/mL | 0.23 ± 0.05 | 47.2 ± 1.55 | > 100 | 16 µM and 8 µg/mL | 64 | 32 | > 100 | 64 µM and 32 µg/mL | 0.32 ± 0.10 | 16 | antibiofilm capacity (in words) [7]: did not show any relevant activity; MIC [8]: 16 to 32 µM (≈ 8.06 to 16.1 µg/mL); RFI ± SD (S. aureus 272123; compound at 12.5 μM): 0.34 ± 0.01; MIC [9]: 64 µM (≈ 32.2 µg/mL); MIC (E. faecalis ATCC 29212; [11]): 32 µg/mL
CC(C)C[C@@H]1NC(=O)[C@@H](Cc2c[nH]c3ccccc23)n2c1nc1ccc(I)cc1c2=O [Compound 13a] | 0.48 ± 0.58 | 0.38 ± 0.01 | 2.39 ± 0.09 | > 100 µM |  |  |  |  |  |  |  |  |  |  | decrease in biofilm formation (MRSA 272123): 91%
